# Measured values taken from US12535483B2, “Norovirus-binding peptide” (Kao Corporation, priority 2019, dated 2026).
# Assays:
# GII.3 VLP = test: KD value by bio-layer interferometry (BLI, BLItz), peptide on SA chip, GII.3 VLP; type: binding, norovirus GII.3 TCH strain; settings: for Kd: GII.3 VLP 1 and 0.1 mg/mL, 100 μM peptide bound to SA chip, KD calculated from Ka and Kd values; for ka / kd: GII.3 VLP; for ka: association 90 sec; for kd: dissociation in PBS 60 sec
# Description: (§1) <Calculation of KD Value by Bio-Layer Interferometry: BLI Method>
# (§2) The apparatus used was BLItz™ (manufactured by ForteBio). The tip of SA chip (manufactured by ForteBio) was kept in contact with purified water for 1 minute for hydration and was then kept in contact with a 1% BSA aqueous solution for 1 hour for blocking. The SA chip subjected to blocking treatment was set to the measuring unit of the BLItz™ main body, and measurement was performed according to the program shown in Table 14. The peptides of SEQ ID NOs: 43, 48, 52, 59, 131, 143, 150, 154, 155, 156, 163, and 172 were used, and the concentration was adjusted to 100 µM. The concentrations of each of the GII.3 and GII.17 VLPs were adjusted to 1 and 0.1 mg/mL. The measurement data were analyzed using the attached software, and the KD value was calculated based on the Ka and Kd values.
# GII.17 VLP = test: KD value by bio-layer interferometry (BLI, BLItz), peptide on SA chip, GII.17 VLP; type: binding, norovirus GII.17 Saitama strain; settings: for ka / kd: GII.17 VLP; for ka: association 90 sec; for kd: dissociation in PBS 60 sec; for Kd: GII.17 VLP 1 and 0.1 mg/mL, 100 μM peptide bound to SA chip, KD calculated from Ka and Kd values
# Description: as §1, §2
Sequence,Kd (GII.3 VLP) [µM],ka (GII.3 VLP) [M⁻¹ s⁻¹],kd (GII.3 VLP) [s⁻¹],ka (GII.17 VLP) [M⁻¹ s⁻¹],kd (GII.17 VLP) [s⁻¹],Kd (GII.17 VLP) [µM]
SVMVTRSLFG [No. 163],0.00766,1.03e+06,0.00786,110000,0.0185,
VCVDNDISMS [No. 150],0.437,27000,0.0118,102,0.255,2510
YRRSKSEIFV [No. 59],0.00887,805000,0.00714,134000,0.0511,0.383
GCVGDLYCSA [No. 172],69.3,189,0.0131,,,
YVVASKSNRL [No. 143],0.0135,325000,0.0044,,,
KYRATICHTV [No. 52],0.0138,747000,0.0103,1.29e+06,0.0232,0.0179
ECMGRRWMSS [No. 154],0.123,141000,0.0173,49500,0.00205,0.628
VVGFGRRSLF [No. 156],1.06,67300,0.0713,398,0.0931,234
ICSSWFPSVH [No. 48],0.0303,810000,0.0246,1.28e+06,0.0978,0.0766
VELFLLTSSC [No. 155],803,115,0.0926,,,
YVIRNSDRHN [No. 43],0.0672,1.18e+06,0.0793,822,0.192,234
NFRVPIRFTH [No. 131],157,1660,0.262,,,
